For 63 compounds, IC50 results are on record in US20050227994A1, “Decomposition inhibitor for extracellular matrix of cartilage” (Shionogi & Co., Ltd., priority 2002, published 2005).

pIC50: −log10 of the molar value. A value given as a limit tells only on which side of the number the result lay.

The target of the first test is T1, MMP-13 (Homo sapiens, UniProt P45452).
T1 construct: catalytic domain (^104Tyr˜^267Gly) was amplified with RT-PCR; His-tag; enterokinase digestion-site; made in house
Put plainly: Assay for inhibitory activities on MMP-13. In kind it is biochemical.
Details: not given
As for the experimental part: In regard to MMP-13, mRNA was prepared from carcinoma cell SW1353 derived from human cartilage stimulate by IL-1, TNF and catalytic domain (^[…]) was amplified with RT-PCR. This was cloned in Escherichia. coli expression vector […] inserted with His-tag sequence and enterokinase digestion-site, induced and expressed by IPTG (Isopropyl-β-D-thiogalactopyranoside) and expressed in a insoluble fraction. Isolation of MMP-13 from an insoluble fraction was carried out by dissolving in modifier (6M urea) by a usual method and purification with metal chelate chromatography (Ni […] Sepharose). […] The enzymatic activity on MMP was analyzed by the method described in “C. Graham Knight, Frances Willenbrock and Gillian Murphy: A novel coumarin-labelled peptide for sensitive continuous assays of the matrix metalloproteinases: […] The substrate: MOCAc-[…] was purchased from Peptide Institute, Inc., Osaka, Japan.
On to `O=C(O)[C@@H](Cc1ccccc1)NS(=O)(=O)c1ccc(-c2ccc(C#Cc3ccc4ccccc4c3)cc2)cc1` [Compound E-29], for which the pIC50 is 8.00.

Still in this test, the particulars now being: catalytic domain, substrate MOCAc-Pro-Leu-Gly-Leu-A2Pr(DNP)-Ala-Arg-NH2; read-out: MMP-13 (IC50μM).
For `CN(C)c1ccc(-c2ccc(S(=O)(=O)N[C@H](Cc3c[nH]c4ccccc34)C(=O)O)s2)cc1` [Compound F-11], the pIC50 was 9.33. `CC1C(=O)NCCN1S(=O)(=O)c1ccc(-c2ccc(N3CCOCC3)cc2)s1` (stereo not drawn) [Compound O-8]: the pIC50 was 5.52.

In the case of `O=C(O)[C@H](Cc1ccccc1)NS(=O)(=O)c1ccc(-n2nnc(-c3ccc4ccccc4c3)n2)cc1` [Compound J-3], the pIC50 is less than 5.00. On the same count and under the same terms, the same measure for `CCC(C)[C@H](NS(=O)(=O)c1ccc(-c2ncc(-c3ccccc3)s2)cc1)C(=O)O` (stereo partly drawn) [Compound A-1]: 7.92; for `O=C(O)[C@H](NS(=O)(=O)c1ccc(-c2ccc(N3CCCC3)cc2)s1)c1ccc(O)cc1` [Compound F-17]: 8.43; for `O=C(O)[C@@H](Cc1ccccc1)NS(=O)(=O)c1ccc(C#Cc2ccc3c(c2)OCO3)s1` [Compound H-1]: 7.36.

As for `COc1ccc(-c2cnc(-c3ccc(S(=O)(=O)N[C@H](CCC(=O)O)C(=O)O)cc3)s2)cc1` [Compound A-4], the pIC50 is 8.62. Take `CS(=O)(=O)OCCc1ccc(-n2nnc(-c3ccc(S(=O)(=O)N[C@H](Cc4ccccc4)C(=O)O)cc3)n2)cc1` [Compound I-4]: the pIC50 was 8.09.

With `O=C(O)[C@@H](Cc1c[nH]c2ccccc12)NS(=O)(=O)c1ccc(-c2ccc(F)cc2)cc1` [Compound E-27], the pIC50 was 7.44. In the case of `CSc1ccc(-c2cnc(-c3ccc(S(=O)(=O)N[C@@H](C)C(=O)O)cc3)s2)cc1` [Compound A-27], the pIC50 was 9.00. As for `O=C(O)[C@@H](Cc1ccccc1)NS(=O)(=O)c1ccc(-c2ccc3ccccc3c2)s1` [Compound N-4], the pIC50 was 7.15. On to `CC(C)c1ccc(-c2nc(-c3ccc(S(=O)(=O)N[C@H](C)C(=O)O)cc3)no2)cc1` [Compound C-3], for which the pIC50 is 7.95. On the same count and under the same terms, the result for `CCc1ccc(-c2nc(-c3ccc(S(=O)(=O)N[C@H](Cc4ccccc4)C(=O)O)s3)no2)cc1` [Compound N-8] reads 6.74. Same read-out and setting: the same measure for `CC(C)c1ccc(-c2nc(-c3ccc(S(=O)(=O)N[C@@H](C(=O)O)C(C)C)cc3)no2)cc1` [Compound C-4]: 8.24.

On to `O=C(O)[C@H](Cc1ccccc1)NS(=O)(=O)c1ccc(C#Cc2ccc3ccccc3c2)s1` [Compound H-9], for which the pIC50 was less than 5.00.

With `CSCC[C@@H](NS(=O)(=O)c1ccc(-c2ncc(-c3ccc(Br)cc3)s2)cc1)C(=O)O` [Compound A-8], the pIC50 is 8.42. In the case of `CCOc1ccc(-c2ccc(S(=O)(=O)NC(C(=O)O)C(C)C)cc2)cc1` (stereo not drawn) [Compound E-19], the pIC50 is 7.91. On the same count and under the same terms, the same measure for `CSc1ccc(-c2ccc(S(=O)(=O)NC(Cc3ccccc3)C(=O)O)s2)cc1` (stereo not drawn) [Compound F-24]: 7.08; for `CN(C)c1ccc(-c2ccc(S(=O)(=O)N[C@H]3CCC[C@@H]3C(=O)O)s2)cc1` [Compound O-3]: 6.45; for `Cc1ccc(-c2ccc(S(=O)(=O)N[C@@H](Cc3c[nH]c4ccccc34)C(=O)O)s2)cc1` [Compound F-19]: 6.20.

In the case of `O=C(O)[C@@H](Cc1ccccc1)NS(=O)(=O)c1ccc(-c2nc(-c3ccc(C(F)(F)F)cc3)no2)cc1` [Compound D-4], the pIC50 is 6.78. Regarding `COc1ccc2cc(-c3nc(-c4ccc(S(=O)(=O)N[C@H](C)C(=O)O)cc4)cs3)ccc2c1` [Compound M-2], the pIC50 was less than 5.00. Turning to `C[C@@H](NS(=O)(=O)c1ccc(C#Cc2ccc(F)c(F)c2)s1)C(=O)O` [Compound H-11], the pIC50 is 6.24.

Regarding `O=C(O)[C@H](Cc1c[nH]c2ccccc12)NS(=O)(=O)c1ccc(-c2ccc(N3CCCC3)cc2)s1` [Compound F-7], the pIC50 is 7.37. On the same count and under the same terms, the result for `Cc1ccc(C#Cc2ccc(S(=O)(=O)N[C@H](CCC(=O)O)C(=O)O)s2)cc1` [Compound H-8] reads 6.82. On the same count and under the same terms, the same measure for `CSc1ccc(-c2ccc(S(=O)(=O)NC(Cc3ccccc3)C(=O)O)cc2)cc1` (stereo not drawn) [Compound E-30]: 8.59; for `COc1ccc(-c2ccc(S(=O)(=O)NC(C(=O)O)C(C)C)s2)cc1` (stereo not drawn) [Compound F-2]: 6.28. On the same count and under the same terms, the result for `O=C(O)CCCNS(=O)(=O)c1ccc(-c2ccc(N3CCCC3)cc2)s1` [Compound O-6] reads 5.50. On to `CSc1ccc(-c2ccc(S(=O)(=O)NC(CC(C)C)C(=O)O)s2)cc1` (stereo not drawn) [Compound F-4], for which the pIC50 is 8.03. On the same count and under the same terms, the same measure for `CSc1ccc(-c2cnc(-c3ccc(S(=O)(=O)N[C@H](C(=O)O)C(C)C)cc3)s2)cc1` [Compound A-26]: 9.35; for `CC(C)[C@@H](NS(=O)(=O)c1ccc(-c2ncc(-c3ccc4c(c3)OCO4)s2)cc1)C(=O)O` [Compound A-18]: 8.28. The same measure, in the same setting: the result for `CSc1ccc(-c2ccc(S(=O)(=O)NC(C(=O)O)c3cccs3)cc2)cc1` (stereo not drawn) [Compound E-13] reads 7.60; that for `NCCc1ccc(-n2nnc(-c3ccc(S(=O)(=O)N[C@H](Cc4ccccc4)C(=O)O)cc3)n2)cc1` [Compound I-3], 7.54; that for `O=C(O)[C@@H](Cc1ccccc1)NS(=O)(=O)c1ccc(-c2nc(-c3ccc4ccccc4c3)no2)cc1` [Compound D-5], 6.00.

For `CSCC[C@@H](NS(=O)(=O)c1ccc(-c2ccc(SC)cc2)cc1)C(=O)O` [Compound E-7], the pIC50 was 7.71.

Turning to `O=C(O)c1ccc(C#Cc2ccc(S(=O)(=O)N[C@H](Cc3ccccc3)C(=O)O)s2)cc1` [Compound H-3], the pIC50 was 5.22. For the compound `O=C(O)CNS(=O)(=O)c1ccc(-c2ccc(N3CCCC3)cc2)s1` [Compound F-13], the pIC50 is 7.48. For `COc1ccc(-c2cnc(-c3ccc(S(=O)(=O)N[C@H](CCC(=O)O)C(=O)O)cc3)o2)cc1` [Compound B-1], the pIC50 was 7.70. As for `CCOc1ccc(-c2ccc(S(=O)(=O)NC(CC(C)C)C(=O)O)s2)cc1` (stereo not drawn) [Compound F-5], the pIC50 is 7.74. Same read-out and setting: the result for `CSCC[C@H](NS(=O)(=O)c1ccc(-c2ccc(SC)cc2)cc1)C(=O)O` [Compound E-8] reads 7.98; that for `O=C(O)[C@@H](NS(=O)(=O)c1ccc(-c2ncc(-c3ccc(Cl)cc3)s2)cc1)c1ccccc1` [Compound A-10], 7.61. Take `O=C(O)[C@H]1[C@@H]2CC[C@@H](C2)[C@@H]1NS(=O)(=O)c1ccc(-c2ccc(N3CCCC3)cc2)s1` [Compound O-2]: the pIC50 was 6.47. Still for that read-out and setting: the result for `CSc1ccc(-c2ccc(S(=O)(=O)N[C@@H](CCC(=O)O)C(=O)O)cc2)cc1` [Compound E-11] reads 8.04. For `CC(C)(C)c1ccc(-c2ccc(S(=O)(=O)NC(Cc3ccccc3)C(=O)O)cc2)cc1` (stereo not drawn) [Compound E-25], the pIC50 is 6.41. Consider `O=C(O)C[C@@H](NS(=O)(=O)c1ccc(-c2ncc(-c3ccc4c(c3)OCO4)s2)cc1)C(=O)O` [Compound A-20], for which the pIC50 is 7.74. Still for that read-out and setting: the same measure for `CSc1ccc(-c2ccc(S(=O)(=O)NC(C(=O)O)C(C)C)cc2)s1` (stereo not drawn) [Compound K-1]: 7.69; for `CC(C)C[C@@H](NS(=O)(=O)c1ccc(C#Cc2ccc3[nH]c(=O)sc3c2)cc1)C(=O)O` [Compound G-15]: 5.96. Take `O=C(O)[C@H](CO)NS(=O)(=O)c1ccc(C#Cc2ccc3c(c2)OCO3)cc1` [Compound G-12]: the pIC50 was 6.83. For `CC(=O)Oc1ccc(C#Cc2ccc(S(=O)(=O)N[C@H](Cc3c[nH]c4ccccc34)C(=O)O)cc2)cc1` [Compound G-1], the pIC50 was 7.34.

In the case of `Cc1ccc(-c2ccc(S(=O)(=O)NC(C(=O)O)C(C)C)s2)cc1` (stereo not drawn) [Compound F-20], the pIC50 was 6.09.

For the compound `O=C(O)[C@@H](Cc1ccccc1)NS(=O)(=O)c1ccc(-c2ncc(-c3ccc(Br)cc3)s2)cc1` [Compound A-6], the pIC50 is 8.54. On the same count and under the same terms, the result for `CSc1ccc(-c2ccc(-c3ccc(S(=O)(=O)N[C@@H](C(=O)O)C(C)C)cc3)cc2)cc1` [Compound E-21] reads 8.70.

For the compound `O=C(O)[C@@H]1[C@@H](NS(=O)(=O)c2ccc(-c3ccc(N4CCCC4)cc3)s2)[C@H]2C=C[C@@H]1C2` [Compound O-10], the pIC50 is 6.22. Same read-out and setting: the result for `CCC(C)C(NS(=O)(=O)c1ccc(-c2ccc(SC)cc2)cc1)C(=O)O` (stereo not drawn) [Compound E-5] reads 8.66; that for `CC(C)C(NS(=O)(=O)c1ccc(-c2ccc(Cl)cc2)cc1)C(=O)O` (stereo not drawn) [Compound E-3], 7.08. Turning to `CC(C)C[C@H](NS(=O)(=O)c1ccc(-c2ncc(-c3ccc(Cl)cc3)s2)cc1)C(=O)O` [Compound A-9], the pIC50 was 8.19. On to `CSc1ccc(-c2cnc(-c3ccc(S(=O)(=O)N[C@@H](C(=O)O)C(C)C)cc3)s2)cc1` [Compound A-25], for which the pIC50 was 9.48. Still for that read-out and setting: the same measure for `CCSc1ccc(-c2ccc(S(=O)(=O)NC(C(=O)O)C(C)CC)cc2)cc1` (stereo not drawn) [Compound E-17]: 8.17. Regarding `CSc1ccc(-c2ccc(S(=O)(=O)N[C@H](CCC(=O)O)C(=O)O)cc2)cc1` [Compound E-10], the pIC50 was 7.63. The same measure, in the same setting: the result for `O=C(O)[C@@H](Cc1ccccc1)NS(=O)(=O)c1ccc(C#Cc2ccc3ccccc3c2)cc1` [Compound G-5] reads less than 5.00. The same measure, in the same setting: the same measure for `CCCCc1ccc(-n2nnc(-c3ccc(S(=O)(=O)NC4(C(=O)O)CCCCC4)cc3)n2)cc1` [Compound O-4]: 7.94; for `O=C(O)[C@H](Cc1ccccc1)NS(=O)(=O)c1ccc(C#Cc2ccc3c(c2)OCO3)cc1` [Compound G-9]: 7.44.
